In patent US5618815A, “1,9-bridged thiazolo[3,2-a]quinoline derivatives” (Bayer Aktiengesellschaft, priority 1994, dated 1997):
Converted amounts (≈) assume the structure as drawn.

What was measured:
Format in all cases: cell-based
[1] = tested on: Micrococcus luteus; assay: MIC by serial dilution (agar), Micrococcus luteus; conditions: strain 9341, Iso-Sensitest agar, 37° C., about 20 hours
Protocol: (§1) The minimum inhibitory concentrations (MICs) of the compounds according to the invention were determined by serial dilution methods on Iso-Sensitest agar (Oxoid). For each test substance a series of agar plates was, prepared, which plates contained decreasing concentrations of the active compound, with twofold dilution in each case. The agar plates were inoculated with a Multipoint inoculator (Denley). Inoculation was carried out using overnight cultures of the pathogens, which had been diluted beforehand so that each inoculation point contained about 10^4 colony-forming particles. The inoculated agar plates were incubated at 37° C., and the growth of the microorganisms was read off after about 20 hours. The MIC (μg/ml) indicates the lowest concentration of active compound at which no growth-could be perceived with the naked eye. In the table below, the MICs of some of the compounds according to the invention are listed.

[2] = tested on: Enterococcus faecalis; assay: MIC by serial dilution (agar), Enterococcus faecalis; conditions: 20 h, 37° C., about 20 hours
Protocol: as §1

[3] = tested on: Staphylococcus aureus; assay: MIC by serial dilution (agar), Staphylococcus aureus; conditions: 37° C., about 20 hours
Protocol: as §1

[4] = strain 27 101, Iso-Sensitest agar
[5] = strain 9790, Iso-Sensitest agar
[6] = 20 h, strain 133, Iso-Sensitest agar
[7] = 20 h, strain ICB 25701, Iso-Sensitest agar
[8] = 20 h, strain ICB 25768, Iso-Sensitest agar
[9] = ATCC29123, 20 h, strain ATCC 29123, Iso-Sensitest agar

Row | MIC [1] [µg/mL] | MIC [2, 4] [µg/mL] | MIC [2, 5] [µg/mL] | MIC [3, 6] [µg/mL] | MIC [3, 7] [µg/mL] | MIC [3, 8] [µg/mL] | MIC [3, 9] [µg/mL] | SMILES
1 | 0.125 (≈ 0.275 µM) | 0.125 (≈ 0.275 µM) | 0.125 (≈ 0.275 µM) | ≤ 0.015 | 0.125 (≈ 0.275 µM) | 0.25 (≈ 0.55 µM) | ≤ 0.015 | CNC1C=CCC2CN(c3c(F)cc4c(=O)c(C(=O)O)c5scc6n5c4c3N(C)C6)CC21 (stereo not drawn) [Example 3, 7-Fluoro-8-(2-methylamino-8-azabicyclo[4.3.0]non-3-en-8-yl)-5-oxo-9,1-[(N-methylimino)-methano]-5H-thiazolo-[3,2-a]quinoline-4-carboxylic acid]
2 | 0.062 (≈ 0.136 µM) | 0.062 (≈ 0.136 µM) | 0.062 (≈ 0.136 µM) | ≤ 0.015 | 0.125 (≈ 0.275 µM) | 0.5 (≈ 1.1 µM) | ≤ 0.015 | CC1C=CC(N)C2CN(c3c(F)cc4c(=O)c(C(=O)O)c5scc6n5c4c3N(C)C6)CC12 (stereo not drawn) [Example 5, 8-(2-Amino-5-methyl-8-azabicyclo[4.3.0]non-3-en-8-yl)-7-fluoro-5-oxo-9,1-[(N-methylimino)methano]-5H-thiazolo-[3,2-a]quinoline-4-carboxylic acid]
3 | 0.25 (≈ 0.534 µM) | 0.126 (≈ 0.269 µM) | 0.125 (≈ 0.267 µM) | ≤ 0.015 | 0.25 (≈ 0.534 µM) | 1 (≈ 2.13 µM) | ≤ 0.015 | CNCC1C=CCC2CN(c3c(F)cc4c(=O)c(C(=O)O)c5scc6n5c4c3N(C)C6)CC12 (stereo not drawn) [Example 7, 7-Fluoro-8-(2-methylamonomethyl-8-azabicyclo[4.3.0]non-3-en-8-yl)-5-oxo-9,1-[(N-methylimino)-methano]-5H-thiazolo-[3,2-a]quinoline-4-carboxylic acid]
